Experimental data published in ChEMBL document CHEMBL3046627, “Synthesis and in vitro study of antibacterial, antifungal activities of some novel bisquinolines” (2013).
Converted amounts (≈) assume the structure as drawn. The source made the active and inactive calls. The rule behind the calls is not given here.

How the values were obtained:
Assay type in all cases: functional
Staphylococcus aureus [1] = assay: Antibacterial activity against Staphylococcus aureus 29737 assessed as growth inhibition at MIC after 24 hr by agar dilution method
Candida albicans [2] = assay: Antifungal activity against Candida albicans assessed as growth inhibition at MIC after 96 hr by agar dilution method
Micrococcus luteus [3] = assay: Antibacterial activity against Micrococcus luteus ATCC 9341 assessed as growth inhibition at MIC after 24 hr by agar dilution method
Escherichia coli [4] = assay: Antibacterial activity against Escherichia coli 319 assessed as growth inhibition at MIC after 24 hr by agar dilution method
Klebsiella pneumoniae [5] = assay: Antibacterial activity against Klebsiella pneumoniae J/I/4 assessed as growth inhibition after 24 hr by agar dilution method
Vibrio cholerae [6] = assay: Antibacterial activity against Vibrio cholerae 759 assessed as growth inhibition at MIC after 24 hr by agar dilution method
Aspergillus niger [7] = assay: Antifungal activity against Aspergillus niger assessed as growth inhibition after 96 hr by agar dilution method
Staphylococcus aureus [8] = assay: Antibacterial activity against Staphylococcus aureus 29737 assessed as growth inhibition after 24 hr by agar dilution method
Candida albicans [9] = assay: Antifungal activity against Candida albicans assessed as growth inhibition after 96 hr by agar dilution method
Candida tropicalis [10] = assay: Antifungal activity against Candida tropicalis assessed as growth inhibition after 96 hr by agar dilution method
Shigella dysenteriae [11] = assay: Antibacterial activity against Shigella dysenteriae 15 assessed as growth inhibition at MIC after 24 hr by agar dilution method
Pseudomonas aeruginosa [12] = assay: Antibacterial activity against Pseudomonas aeruginosa 71 assessed as growth inhibition at MIC after 24 hr by agar dilution method
Escherichia coli [13] = assay: Antibacterial activity against Escherichia coli 319 assessed as growth inhibition after 24 hr by agar dilution method
Candida tropicalis [14] = assay: Antifungal activity against Candida tropicalis assessed as growth inhibition at MIC after 96 hr by agar dilution method
Micrococcus luteus [15] = assay: Antibacterial activity against Micrococcus luteus ATCC 9341 assessed as growth inhibition after 24 hr by agar dilution method
Pseudomonas aeruginosa [16] = assay: Antibacterial activity against Pseudomonas aeruginosa 71 assessed as growth inhibition after 24 hr by agar dilution method
Vibrio cholerae [17] = assay: Antibacterial activity against Vibrio cholerae 759 assessed as growth inhibition after 24 hr by agar dilution method
Cryptococcus neoformans [18] = assay: Antifungal activity against Cryptococcus neoformans assessed as growth inhibition after 96 hr by agar dilution method
Klebsiella pneumoniae [19] = assay: Antibacterial activity against Klebsiella pneumoniae J/I/4 assessed as growth inhibition at MIC after 24 hr by agar dilution method
Bacillus pumilus [20] = assay: Antibacterial activity against Bacillus pumilus 11778 assessed as growth inhibition at MIC after 24 hr by agar dilution method
Aspergillus niger [21] = assay: Antifungal activity against Aspergillus niger assessed as growth inhibition at MIC after 96 hr by agar dilution method
Shigella dysenteriae [22] = assay: Antibacterial activity against Shigella dysenteriae 15 assessed as growth inhibition after 24 hr by agar dilution method
Cryptococcus neoformans [23] = assay: Antifungal activity against Cryptococcus neoformans assessed as growth inhibition at MIC after 96 hr by agar dilution method
Bacillus pumilus [24] = assay: Antibacterial activity against Bacillus pumilus 11778 assessed as growth inhibition after 24 hr by agar dilution method
[25] = Staphylococcus aureus, 29737, 24 h
[26] = Pseudomonas aeruginosa, 71, 24 h

In the case of `c1ccc(COc2cccc3cccnc23)c(COc2cccc3cccnc23)c1`, the “diameter of the inhibition zone (DIZ)” value (Staphylococcus aureus [1]) is reported as 7.2 mm, the “diameter of the inhibition zone (DIZ)” value (Candida albicans [2]) is reported as “inactive” and the “diameter of the inhibition zone (DIZ)” value (Micrococcus luteus [3]) is reported as 7 mm. For the same compound, the “diameter of the inhibition zone (DIZ)” value (Escherichia coli [4]) was “inactive”, the MIC (Klebsiella pneumoniae [5]; J/I/4, 24 h) was 32 µg/mL (≈ 81.5 µM) and the “diameter of the inhibition zone (DIZ)” value (Vibrio cholerae [6]) was “inactive”. For the same compound, the MIC (Aspergillus niger [7]) was “inactive”, the MIC (Staphylococcus aureus [8]; [25]) was 32 µg/mL (≈ 81.5 µM) and the MIC (Candida albicans [9]) was “inactive”. The MIC (Candida tropicalis [10]) was “inactive”, the “diameter of the inhibition zone (DIZ)” value (Shigella dysenteriae [11]) was 6.5 mm and the “diameter of the inhibition zone (DIZ)” value (Pseudomonas aeruginosa [12]) was 6 mm. For the same compound, the MIC (Escherichia coli [13]; Escherichia coli, 319, 24 h) was > 500 µg/mL, the “diameter of the inhibition zone (DIZ)” value (Candida tropicalis [14]) was “inactive” and the MIC (Micrococcus luteus [15]; ATCC 9341, 24 h) was > 500 µg/mL. For the same compound, the MIC (Pseudomonas aeruginosa [16]; [26]) was > 500 µg/mL, the MIC (Vibrio cholerae [17]; Vibrio cholerae, 759, 24 h) was > 500 µg/mL and the MIC (Cryptococcus neoformans [18]) was “inactive”. For the same compound, the “diameter of the inhibition zone (DIZ)” value (Klebsiella pneumoniae [19]) was 8 mm, the “diameter of the inhibition zone (DIZ)” value (Bacillus pumilus [20]) was “inactive” and the “diameter of the inhibition zone (DIZ)” value (Aspergillus niger [21]) was “inactive”. The MIC (Shigella dysenteriae [22]; Shigella dysenteriae, 15, 24 h) was 32 µg/mL (≈ 81.5 µM), the “diameter of the inhibition zone (DIZ)” value (Cryptococcus neoformans [23]) was “inactive” and the MIC (Bacillus pumilus [24]; Bacillus pumilus, 11778, 24 h) was 500 µg/mL (≈ 1270 µM).

In the case of `Cc1ccc2cccc(OCc3ccc(COc4cccc5ccc(C)nc45)cc3)c2n1`, the MIC (Klebsiella pneumoniae [5]) is reported as “inactive”, the MIC (Aspergillus niger [7]) is reported as “inactive” and the MIC (Staphylococcus aureus [8]) is reported as “inactive”. The MIC (Candida albicans [9]) was “inactive”, the MIC (Candida tropicalis [10]) was “inactive” and the MIC (Escherichia coli [13]) was “inactive”. The MIC (Micrococcus luteus [15]) was “inactive”, the MIC (Pseudomonas aeruginosa [16]) was “inactive” and the MIC (Vibrio cholerae [17]) was “inactive”. The MIC (Cryptococcus neoformans [18]) was “inactive”, the MIC (Shigella dysenteriae [22]) was “inactive” and the MIC (Bacillus pumilus [24]) was “inactive”.

In the case of `c1ccc2cc(COc3cccc4cccnc34)c(COc3cccc4cccnc34)cc2c1`, the “diameter of the inhibition zone (DIZ)” value (Staphylococcus aureus [1]) is reported as 6 mm, the “diameter of the inhibition zone (DIZ)” value (Micrococcus luteus [3]) is reported as 6 mm and the “diameter of the inhibition zone (DIZ)” value (Escherichia coli [4]) is reported as 9.7 mm. The MIC (Klebsiella pneumoniae [5]; J/I/4, 24 h) was > 500 µg/mL, the “diameter of the inhibition zone (DIZ)” value (Vibrio cholerae [6]) was 7.1 mm and the MIC (Aspergillus niger [7]) was “inactive”. The MIC (Staphylococcus aureus [8]; [25]) was > 500 µg/mL, the MIC (Candida albicans [9]) was “inactive” and the MIC (Candida tropicalis [10]) was “inactive”. For the same compound, the “diameter of the inhibition zone (DIZ)” value (Shigella dysenteriae [11]) was 6 mm, the “diameter of the inhibition zone (DIZ)” value (Pseudomonas aeruginosa [12]) was 8.2 mm and the MIC (Escherichia coli [13]; Escherichia coli, 319, 24 h) was 32 µg/mL (≈ 72.3 µM). The MIC (Micrococcus luteus [15]; ATCC 9341, 24 h) was > 500 µg/mL, the MIC (Pseudomonas aeruginosa [16]; [26]) was > 500 µg/mL and the MIC (Vibrio cholerae [17]; Vibrio cholerae, 759, 24 h) was > 500 µg/mL. For the same compound, the MIC (Cryptococcus neoformans [18]) was “inactive”, the “diameter of the inhibition zone (DIZ)” value (Klebsiella pneumoniae [19]) was 6.4 mm and the “diameter of the inhibition zone (DIZ)” value (Bacillus pumilus [20]) was 9 mm. The MIC (Shigella dysenteriae [22]; Shigella dysenteriae, 15, 24 h) was > 500 µg/mL and the MIC (Bacillus pumilus [24]; Bacillus pumilus, 11778, 24 h) was 256 µg/mL (≈ 579 µM).

For `Cc1ccc2cccc(OCc3cccc(COc4cccc5ccc(C)nc45)c3)c2n1`, the “diameter of the inhibition zone (DIZ)” value (Candida albicans [2]) was “inactive”, the MIC (Klebsiella pneumoniae [5]) was “inactive” and the MIC (Aspergillus niger [7]) was “inactive”. For the same compound, the MIC (Staphylococcus aureus [8]) was “inactive”, the MIC (Candida albicans [9]) was “inactive” and the MIC (Candida tropicalis [10]) was “inactive”. For the same compound, the MIC (Escherichia coli [13]) was “inactive”, the “diameter of the inhibition zone (DIZ)” value (Candida tropicalis [14]) was “inactive” and the MIC (Micrococcus luteus [15]) was “inactive”. For the same compound, the MIC (Pseudomonas aeruginosa [16]) was “inactive”, the MIC (Vibrio cholerae [17]) was “inactive” and the MIC (Cryptococcus neoformans [18]) was “inactive”. For the same compound, the “diameter of the inhibition zone (DIZ)” value (Aspergillus niger [21]) was “inactive”, the MIC (Shigella dysenteriae [22]) was “inactive” and the “diameter of the inhibition zone (DIZ)” value (Cryptococcus neoformans [23]) was “inactive”. For the same compound, the MIC (Bacillus pumilus [24]) was “inactive”.

For `CC1(C)S[C@@H]2[C@H](NC(=O)[C@H](N)c3ccc(O)cc3)C(=O)N2[C@H]1C(=O)O` [AMOXICILLIN], the “diameter of the inhibition zone (DIZ)” value (Staphylococcus aureus [1]) was 10.5 mm, the “diameter of the inhibition zone (DIZ)” value (Micrococcus luteus [3]) was 11 mm and the “diameter of the inhibition zone (DIZ)” value (Escherichia coli [4]) was 8 mm. For the same compound, the MIC (Klebsiella pneumoniae [5]; J/I/4, 24 h) was 256 µg/mL (≈ 701 µM), the “diameter of the inhibition zone (DIZ)” value (Vibrio cholerae [6]) was 7 mm and the MIC (Staphylococcus aureus [8]; [25]) was 0.5 µg/mL (≈ 1.37 µM). For the same compound, the “diameter of the inhibition zone (DIZ)” value (Shigella dysenteriae [11]) was 9.5 mm, the “diameter of the inhibition zone (DIZ)” value (Pseudomonas aeruginosa [12]) was 7.5 mm and the MIC (Escherichia coli [13]; Escherichia coli, 319, 24 h) was 4 µg/mL (≈ 10.9 µM). It also gave an MIC (Micrococcus luteus [15]; ATCC 9341, 24 h) of 1 µg/mL (≈ 2.74 µM), an MIC (Pseudomonas aeruginosa [16]; [26]) of 256 µg/mL (≈ 701 µM) and an MIC (Vibrio cholerae [17]; Vibrio cholerae, 759, 24 h) of 256 µg/mL (≈ 701 µM). For the same compound, the “diameter of the inhibition zone (DIZ)” value (Klebsiella pneumoniae [19]) was 8 mm, the “diameter of the inhibition zone (DIZ)” value (Bacillus pumilus [20]) was 10 mm and the MIC (Shigella dysenteriae [22]; Shigella dysenteriae, 15, 24 h) was 100 µg/mL (≈ 274 µM). For the same compound, the MIC (Bacillus pumilus [24]; Bacillus pumilus, 11778, 24 h) was 0.5 µg/mL (≈ 1.37 µM).

GENTAMICIN showed an inhibition zone (IZ) (Micrococcus luteus [3]) of 7 mm, an MIC (Klebsiella pneumoniae [5]) of 0.25 µg/mL and an inhibition zone (IZ) (Vibrio cholerae [6]) of 11 mm. It also gave an MIC (Staphylococcus aureus [8]) of 1 µg/mL, an inhibition zone (IZ) (Shigella dysenteriae [11]) of 12 mm and an MIC (Micrococcus luteus [15]) of 24 µg/mL. For the same compound, the MIC (Pseudomonas aeruginosa [16]) was 4 µg/mL, the MIC (Vibrio cholerae [17]) was 2 µg/mL and the inhibition zone (IZ) (Klebsiella pneumoniae [19]) was 9 mm. It also gave an inhibition zone (IZ) (Bacillus pumilus [20]) of 7 mm, an MIC (Shigella dysenteriae [22]) of 2 µg/mL and an MIC (Bacillus pumilus [24]) of 10 µg/mL.

In the case of `c1cnc2c(OCc3ccc(COc4cccc5cccnc45)cc3)cccc2c1`, the “diameter of the inhibition zone (DIZ)” value (Candida albicans [2]) is reported as “inactive”, the MIC (Klebsiella pneumoniae [5]) is reported as “inactive” and the MIC (Aspergillus niger [7]) is reported as “inactive”. For the same compound, the MIC (Staphylococcus aureus [8]) was “inactive”, the MIC (Candida albicans [9]) was “inactive” and the MIC (Candida tropicalis [10]) was “inactive”. For the same compound, the MIC (Escherichia coli [13]) was “inactive”, the MIC (Micrococcus luteus [15]) was “inactive” and the MIC (Pseudomonas aeruginosa [16]) was “inactive”. The MIC (Vibrio cholerae [17]) was “inactive”, the MIC (Cryptococcus neoformans [18]) was “inactive” and the MIC (Shigella dysenteriae [22]) was “inactive”. For the same compound, the “diameter of the inhibition zone (DIZ)” value (Cryptococcus neoformans [23]) was “inactive” and the MIC (Bacillus pumilus [24]) was “inactive”.
